Measurements as given in patent US20230303495A9, “PYRIDINE OXYNITRIDE, PREPARATION METHOD THEREFOR AND USE THEREOF” (Orion Corporation, priority 2019, published 2023).

Experiments:
[1] = In vivo pharmacokinetics of rat, single intravenous injection or oral administration by gavage; parameters: species or system Male Sprague Dawley rats; conditions: male, Sprague-Dawley, plasma; for Vd: read-out: VZ; for bioavailability: intragastric (gavage) 10 mg/kg vs intravenous 1 mg/kg
Experimental: In this experimental embodiment, the in vivo pharmacokinetics of rat was evaluated by a single intravenous injection or oral administration by gavage.
Experimental methods and conditions: Male Sprague Dawley rats, all animals were fasted overnight, and the test compound was given 1 mg/Kg (intravenous injection, solvent […]) and 10 mg/Kg (administrated by gavage) respectively, 5, 15, 30 min, 1, 2, 4, 6, 8 and 24 hr after administration, blood was collected through the submandibular vein, about 0.20 mL of each sample was collected, heparin sodium was used for anticoagulation, the samples were placed on ice after the collection, then centrifuged within 1 hour to separate the plasma for testing. The blood drug concentration in plasma was detected by liquid-phase tandem mass spectrometry (LC/MS/MS), and the pharmacokinetic parameters were calculated by the measured concentration.

NaV1.8 = target: T1, NaV1.8 (Homo sapiens, UniProt Q9Y5Y9); experiment: Whole-cell patch clamp blocking activity against NaV1.8 channel current; format: cell-based; conditions: for IC50: CHO cell line stably expressing Nav1.8 (SCN10A: NM_006514), patch clamp; for Blocking rate (%) @100 nM: against NaV1.8 at 100 nM, CHO cell line stably expressing Nav1.8, patch clamp
T1 construct: expressed in transfected cells
Experimental: 1. Test method: patch clamp technique was used to detect the influence of compounds on voltage-gated sodium channel (NaV) 1.1-1.8 subtype current
1) The specific information of the CHO cell line stably expressing the Nav1.8 channel was as follows: SCN10A: NM_006514
2) Cells were cultured in HAM'S/F-12 medium containing 10% fetal bovine serum and 10 μg/mL Blasticidin, 200 μg/mL Hygromycin B and 100 μg/mL Zeocin, culture temperature was 37° C. and the concentration of CO2 was 5%.
5) Patch clamp detection, before the experiment, the cells were separated with 0.25%—trypsin EDTA, inoculated into a 24 well plate with a density of 8*10^3 cells per well (final volume: 500 μL), tetracycline was added thereto, and experimental test was performed on the next day.
1) Extracellular fluid: 140 mM NaCl, 3.5 mM KCl, 2 mM CaCl2, 10 mM HEPES, 1.25 mM NaH2PO4, 1 mM MgCl2, 10 mM Glucose, pH=7.4 (NaOH).
2) Intracellular fluid: 50 mM CsCl, 10 mM NaCl, 10 mM HEPES, 20 mM EGTA, 60 mM CsF, pH=7.2 (CsOH).
The voltage stimulation scheme of whole-cell patch clamp recording of Nav channel current was as follows: first the membrane potential of the cell was clamped at −130 mV, and then the voltage was stepped to −40 mV or −20 mV at 10 mv step intervals for 8 s. The clamping voltage was maintained at −120 mV, and data was collected repeatedly every 20 seconds. The peak amplitude of its inward current was measured to determine its half-inactivation voltage.
The cell clamping potential was set at −120 mV. The resting and half-inactivation inhibition of sodium current was measured using double pulse mode. The double pulse mode was completed by two 0 mV depolarization test pulses (TP1 and TP2) lasting 50 ms. The conditional voltage between the two depolarization pulses was set near the half-inactivation voltage (lasting 8 s). […] The data acquisition was repeated at an interval of 20 s and the current peak was measured at the two test pulses.
When the current of the Nav channel recorded by the whole cell was stable, the drug was administered, after each drug concentration was applied for 5 minutes (or the current was stable), the next concentration would be tested, and multiple concentrations would be tested for each test compound. The cover glass covered with cells was placed in the recording bath of an inverted microscope, the test compound and the external liquid without compound flowed through the recording chambers in turns from low concentration to high concentration by gravity perfusion, so as to act on the cells, in the recording, the liquid exchange was carried out by vacuum pump. The current detected in each cell in the compound-free external fluid served as its own control group. Multiple cells were detected independently and repeatedly. All electrophysiological experiments were performed at room temperature.
First, the current after the action of each drug concentration and the blank control current were normalized, and then the blocking rate corresponding to each drug concentration was calculated. The mean and standard error were calculated for each concentration, and all the above values were calculated by Microsoft Excel 2013. In addition, the half-inhibitory concentration of each compound was calculated by IGOR software with the following equation: retardation rate=1/[1+(IC50/c)^h].
The dose-dependent effect was nonlinearly fitted with the above equation, wherein, c refers to the drug concentration, IC50 was the half inhibitory concentration, and h refers to the Hill coefficient. The curve fitting and the calculation of IC50 were completed by IGOR software (software version: 6.0.1.0).

[2] = intravenous administration 1 mg/kg
[3] = po, intragastric (gavage) 10 mg/kg

T1 sequence (Q9Y5Y9 whole entry): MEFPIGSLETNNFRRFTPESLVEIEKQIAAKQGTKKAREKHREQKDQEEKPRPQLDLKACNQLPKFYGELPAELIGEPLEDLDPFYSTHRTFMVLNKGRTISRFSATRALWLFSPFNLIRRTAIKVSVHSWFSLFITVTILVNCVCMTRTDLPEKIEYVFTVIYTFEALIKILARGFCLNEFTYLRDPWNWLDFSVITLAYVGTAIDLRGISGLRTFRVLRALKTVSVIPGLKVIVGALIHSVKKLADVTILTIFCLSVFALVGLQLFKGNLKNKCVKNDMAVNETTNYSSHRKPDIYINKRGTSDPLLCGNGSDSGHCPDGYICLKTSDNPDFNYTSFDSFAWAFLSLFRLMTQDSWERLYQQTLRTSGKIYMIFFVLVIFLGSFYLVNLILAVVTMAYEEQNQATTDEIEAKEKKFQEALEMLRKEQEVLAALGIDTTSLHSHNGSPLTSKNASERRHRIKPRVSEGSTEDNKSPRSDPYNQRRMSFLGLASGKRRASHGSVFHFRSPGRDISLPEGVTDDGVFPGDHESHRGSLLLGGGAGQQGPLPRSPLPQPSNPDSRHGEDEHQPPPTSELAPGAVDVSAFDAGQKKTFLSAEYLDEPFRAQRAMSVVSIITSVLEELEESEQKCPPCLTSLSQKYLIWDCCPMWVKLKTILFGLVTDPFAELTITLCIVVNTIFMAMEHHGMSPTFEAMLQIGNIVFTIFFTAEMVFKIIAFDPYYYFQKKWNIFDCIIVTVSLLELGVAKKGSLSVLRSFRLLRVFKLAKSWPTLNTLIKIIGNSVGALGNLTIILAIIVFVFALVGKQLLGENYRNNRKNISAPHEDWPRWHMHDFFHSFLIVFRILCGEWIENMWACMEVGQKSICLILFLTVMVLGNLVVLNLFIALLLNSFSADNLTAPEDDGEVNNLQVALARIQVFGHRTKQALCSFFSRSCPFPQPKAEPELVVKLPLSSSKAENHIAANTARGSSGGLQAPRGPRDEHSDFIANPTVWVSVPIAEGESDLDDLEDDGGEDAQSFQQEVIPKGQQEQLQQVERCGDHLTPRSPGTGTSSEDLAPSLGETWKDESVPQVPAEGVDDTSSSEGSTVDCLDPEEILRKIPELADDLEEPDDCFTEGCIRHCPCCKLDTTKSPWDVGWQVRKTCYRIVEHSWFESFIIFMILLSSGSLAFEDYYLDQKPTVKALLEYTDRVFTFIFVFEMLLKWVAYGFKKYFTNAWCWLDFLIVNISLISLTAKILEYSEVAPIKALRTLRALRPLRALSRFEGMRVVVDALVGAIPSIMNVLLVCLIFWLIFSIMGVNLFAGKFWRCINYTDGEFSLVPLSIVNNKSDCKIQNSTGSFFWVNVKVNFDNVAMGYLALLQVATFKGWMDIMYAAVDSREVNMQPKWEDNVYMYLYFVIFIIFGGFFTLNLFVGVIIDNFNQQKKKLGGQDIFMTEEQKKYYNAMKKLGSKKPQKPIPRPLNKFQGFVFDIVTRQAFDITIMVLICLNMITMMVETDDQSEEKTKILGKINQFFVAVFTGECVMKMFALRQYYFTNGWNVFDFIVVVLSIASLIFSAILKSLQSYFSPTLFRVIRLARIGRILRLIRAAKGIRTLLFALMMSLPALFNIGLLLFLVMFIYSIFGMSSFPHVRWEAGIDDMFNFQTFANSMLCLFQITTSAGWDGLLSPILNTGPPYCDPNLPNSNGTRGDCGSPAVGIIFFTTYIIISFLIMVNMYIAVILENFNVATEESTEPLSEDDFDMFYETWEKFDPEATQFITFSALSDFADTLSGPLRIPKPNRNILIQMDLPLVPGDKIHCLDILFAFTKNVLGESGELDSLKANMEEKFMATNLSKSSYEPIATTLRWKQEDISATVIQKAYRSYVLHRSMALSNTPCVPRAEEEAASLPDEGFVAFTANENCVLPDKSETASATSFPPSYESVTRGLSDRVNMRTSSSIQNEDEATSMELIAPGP

Structure (SMILES) | AUC(0-inf) [1, 2] [µg·h/mL] | clearance [1, 2] [mL/min/kg] | half-life [1, 2] [h] | Vd [1, 2] [L/kg] | AUC(0-inf) [1, 3] [µg·h/mL] | Cmax [1, 3] [ng/mL] | half-life [1, 3] [h] | bioavailability ([1]; po) [%] | IC50 (NaV1.8) [nM] | Blocking rate (%) @100 nM (NaV1.8) [%]
O=C(Nc1ccc[n+]([O-])c1)c1cc(Cl)c(Cl)cc1Oc1ccc(OC(F)(F)F)cc1 [Embodiment A11] | 1.46 | 11.4 | 0.7 | 0.699 | 10.6 | 1330 | 2.51 | 72.6 | 6.2 | 
O=C(Nc1cc[n+](O)nc1)c1c(Oc2ccc(OC(F)(F)F)cc2)ccc(C(F)(F)F)c1F [Embodiment A46] | 15.6 | 1.08 | 20.1 | 1.85 | 2930 | 2060 | 915 | 46.8 | 3.1 | 
O=C(Nc1cc[n+]([O-])nc1)c1c(Oc2ccc(OC(F)(F)F)c(F)c2)ccc(C(F)(F)F)c1F [Embodiment A56] | 9.6 | 1.74 | 13.1 | 1.97 | 117 | 3000 | 27.9 | 68.2 | 3.7 | 
O=C(Nc1ccc[n+]([O-])c1)c1c(Oc2ccc(OC(F)(F)F)cc2)cc(C(F)(F)F)c(Cl)c1F [Embodiment A68] | 33.3 | 0.5 | 5.24 | 0.228 | 139 | 9700 | 5.72 | 41.8 | 0.27 | 99.15
O=C(Nc1ccc[n+]([O-])c1)c1cc(Cl)c(C(F)(F)F)cc1Oc1ccc(OC(F)(F)F)cc1 [Embodiment A69] | 56.7 | 0.3 | 12.3 | 0.312 | 399 | 17100 | 12.2 | 70.4 | 2 | 
O=C(Nc1ccc[n+]([O-])c1)c1c(Oc2ccc(OC(F)(F)F)c(F)c2)cc(C(F)(F)F)c(Cl)c1F [Embodiment A84] | 18.8 | 0.91 | 4.53 | 0.355 | 67.2 | 4920 | 5.75 | 35.7 |  | 99.14
O=C(Nc1ccc[n+]([O-])c1)c1cc(C(F)(F)F)c(C2CC2)cc1Oc1ccc(OC(F)(F)F)cc1 [Embodiment A97] |  |  |  |  |  |  |  |  |  | 86.65
O=C(Nc1ccc[n+]([O-])c1)c1c(Oc2ccc(OC(F)(F)F)cc2)ccc(CC2CC2)c1F [Embodiment A98] |  |  |  |  |  |  |  |  |  | 95.70
O=C(Nc1cc[n+]([O-])cc1)c1c(Oc2ccc(OC(F)(F)F)cc2)cc(Cl)c(Cl)c1F [Embodiment A100] |  |  |  |  |  |  |  |  |  | 97.60
O=C(Nc1ccc[n+]([O-])c1)c1c(Oc2ccc(OCC(F)(F)F)cc2)cc(Cl)c(Cl)c1F [Embodiment A101] |  |  |  |  |  |  |  |  |  | 98.47
O=C(Nc1cc[n+]([O-])cc1)c1c(Oc2ccc(OC(F)(F)F)cc2)cnc(C(F)(F)F)c1Cl [Embodiment A102] |  |  |  |  |  |  |  |  |  | 82.71
Cc1cc(F)ccc1Oc1cc(C(F)(F)F)c(Cl)cc1C(=O)Nc1ccc[n+]([O-])c1 [Embodiment A103] | 2.76 | 6.15 | 2.28 | 1.19 | 14 | 1710 | 2.47 | 50.7 |  | 92.47
Cc1cc(F)ccc1Oc1cc(C(F)(F)F)c(Cl)c(F)c1C(=O)Nc1ccc[n+]([O-])c1 [Embodiment A104] |  |  |  |  |  |  |  |  |  | 97.93
COc1c(Cl)c(C(F)(F)F)cc(Oc2ccc(F)cc2C)c1C(=O)Nc1ccc[n+]([O-])c1 [Embodiment A105] |  |  |  |  |  |  |  |  |  | 98.42
O=C(Nc1ccc[n+]([O-])c1)c1cc(Cl)c(C(F)(F)F)cc1Oc1ccc(F)cc1C1CC1 [Embodiment A106] |  |  |  |  |  |  |  |  | 3 | 
Cc1cc(F)ccc1Oc1cc(C(F)(F)F)c(Br)cc1C(=O)Nc1ccc[n+]([O-])c1 [Embodiment A107] |  |  |  |  |  |  |  |  |  | 95.60
O=C(Nc1ccc[n+]([O-])c1)c1cc(Cl)c(C(F)(F)F)cc1Oc1ccc(F)cc1OC1CC1 [Embodiment A108] |  |  |  |  |  |  |  |  |  | 96.92
Cc1cc(F)ccc1Oc1cc(C(F)(F)F)c(Br)c(F)c1C(=O)Nc1ccc[n+]([O-])c1 [Embodiment A110] |  |  |  |  |  |  |  |  |  | 98.75
O=C(Nc1ccc[n+]([O-])c1)c1c(Oc2ccc(F)cc2C2CC2)cc(C(F)(F)F)c(Cl)c1F [Embodiment A111] |  |  |  |  |  |  |  |  |  | 99.42
